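All cell lines were grown in 96-well plates and treated with compound for 48 hours. GI50 marks 50% less growth.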 Calls of active or inactive are those of the source. Rule as the data show it: active = GI50 up to about 1.1 µM and inactive = higher.
How the values were obtained:
Assay in all cases: NCI-60 cell line screen, 48 h
786-0 = test system: 786-0
A498 = test system: A498
A549 = test system: A549
ACHN = test system: ACHN
BT-549 = test system: BT-549
CAKI-1 = test system: CAKI-1
CCRF-CEM = test system: CCRF-CEM
COLO 205 = test system: COLO 205
DU-145 = test system: DU-145
EKVX = test system: EKVX
HCC 2998 = test system: HCC 2998
HCT-116 = test system: HCT-116
HCT-15 = test system: HCT-15
HL-60 = test system: HL-60
HOP-62 = test system: HOP-62
HT-29 = test system: HT-29
Hs-578T = test system: Hs-578T
IGROV-1 = test system: IGROV-1
K562 = test system: K562
KM12 = test system: KM12
LOX IMVI = test system: LOX IMVI
M14 = test system: M14
MCF7 = test system: MCF7
MDA-MB-231 = test system: MDA-MB-231
MDA-MB-435 = test system: MDA-MB-435
MDA-N = test system: MDA-N
MOLT-4 = test system: MOLT-4
Malme-3M = test system: Malme-3M
NCI-H226 = test system: NCI-H226
NCI-H23 = test system: NCI-H23
NCI-H460 = test system: NCI-H460
NCI-H522 = test system: NCI-H522
NCI/ADR-RES = test system: NCI/ADR-RES
OVCAR-3 = test system: OVCAR-3
OVCAR-4 = test system: OVCAR-4
OVCAR-5 = test system: OVCAR-5
OVCAR-8 = test system: OVCAR-8
PC-3 = test system: PC-3
RPMI-8226 = test system: RPMI-8226
RXF 393 = test system: RXF 393
SF-268 = test system: SF-268
SF-295 = test system: SF-295
SF-539 = test system: SF-539
SK-MEL-28 = test system: SK-MEL-28
SK-MEL-2 = test system: SK-MEL-2
SK-MEL-5 = test system: SK-MEL-5
SK-OV-3 = test system: SK-OV-3
SN12C = test system: SN12C
SNB-19 = test system: SNB-19
SNB-75 = test system: SNB-75
SR = test system: SR
SW-620 = test system: SW-620
T47D = test system: T47D
TK-10 = test system: TK-10
U-251 = test system: U-251
UACC-257 = test system: UACC-257
UACC-62 = test system: UACC-62
HOP-92 = test system: HOP-92
UO-31 = test system: UO-31

SMILES: O=C(O)c1ccc(S(=O)(=O)c2ccccc2[N+](=O)[O-])cc1
- GI50 (786-0): > 10 µM (inactive)
- GI50 (A498): > 10 µM (inactive)
- GI50 (A549): > 10 µM (inactive)
- GI50 (ACHN): > 10 µM (inactive)
- GI50 (BT-549): > 10 µM (inactive)
- GI50 (CAKI-1): > 10 µM (inactive)
- GI50 (CCRF-CEM): > 10 µM (inactive)
- GI50 (COLO 205): > 10 µM (inactive)
- GI50 (DU-145): > 10 µM (inactive)
- GI50 (EKVX): > 10 µM (inactive)
- GI50 (HCC 2998): > 10 µM (inactive)
- GI50 (HCT-116): > 10 µM (inactive)
- GI50 (HCT-15): > 10 µM
- GI50 (HL-60): > 10 µM (inactive)
- GI50 (HOP-62): > 10 µM (inactive)
- GI50 (HT-29): > 10 µM (inactive)
- GI50 (Hs-578T): > 10 µM (inactive)
- GI50 (IGROV-1): > 10 µM (inactive)
- GI50 (K562): > 10 µM (inactive)
- GI50 (KM12): > 10 µM (inactive)
- GI50 (LOX IMVI): > 10 µM (inactive)
- GI50 (M14): > 10 µM (inactive)
- GI50 (MCF7): > 10 µM (inactive)
- GI50 (MDA-MB-231): > 10 µM (inactive)
- GI50 (MDA-MB-435): > 10 µM (inactive)
- GI50 (MDA-N): > 10 µM (inactive)
- GI50 (MOLT-4): > 10 µM (inactive)
- GI50 (Malme-3M): > 10 µM (inactive)
- GI50 (NCI-H226): > 10 µM (inactive)
- GI50 (NCI-H23): > 10 µM (inactive)
- GI50 (NCI-H460): > 10 µM (inactive)
- GI50 (NCI-H522): > 10 µM (inactive)
- GI50 (NCI/ADR-RES): > 10 µM (inactive)
- GI50 (OVCAR-3): > 10 µM (inactive)
- GI50 (OVCAR-4): > 10 µM (inactive)
- GI50 (OVCAR-5): > 10 µM (inactive)
- GI50 (OVCAR-8): > 10 µM (inactive)
- GI50 (PC-3): > 10 µM (inactive)
- GI50 (RPMI-8226): > 10 µM (inactive)
- GI50 (RXF 393): > 10 µM (inactive)
- GI50 (SF-268): > 10 µM (inactive)
- GI50 (SF-295): > 10 µM (inactive)
- GI50 (SF-539): > 10 µM (inactive)
- GI50 (SK-MEL-28): > 10 µM (inactive)
- GI50 (SK-MEL-2): > 10 µM (inactive)
- GI50 (SK-MEL-5): > 10 µM (inactive)
- GI50 (SK-OV-3): > 10 µM (inactive)
- GI50 (SN12C): > 10 µM (inactive)
- GI50 (SNB-19): > 10 µM (inactive)
- GI50 (SNB-75): > 10 µM (inactive)
- GI50 (SR): > 10 µM (inactive)
- GI50 (SW-620): > 10 µM (inactive)
- GI50 (T47D): > 10 µM (inactive)
- GI50 (TK-10): > 10 µM (inactive)
- GI50 (U-251): > 10 µM (inactive)
- GI50 (UACC-257): > 10 µM (inactive)
- GI50 (UACC-62): > 10 µM (inactive)

SMILES: Cc1cc(-n2c(/C=C/c3ccc(Cl)cc3)nc3cc(Cl)ccc3c2=O)on1
- GI50 (786-0): 1.47 µM (inactive)
- GI50 (A498): 2.31 µM (inactive)
- GI50 (A549): 14.1 µM (inactive)
- GI50 (ACHN): 7.57 µM (inactive)
- GI50 (BT-549): > 50 µM (inactive)
- GI50 (CAKI-1): > 50 µM (inactive)
- GI50 (CCRF-CEM): > 50 µM (inactive)
- GI50 (COLO 205): 18.9 µM (inactive)
- GI50 (DU-145): > 50 µM (inactive)
- GI50 (EKVX): 22.4 µM (inactive)
- GI50 (HCC 2998): > 50 µM (inactive)
- GI50 (HCT-116): 6.1 µM (inactive)
- GI50 (HCT-15): 28.1 µM
- GI50 (HL-60): > 50 µM (inactive)
- GI50 (HOP-62): 7.62 µM (inactive)
- GI50 (HOP-92): 16 µM (inactive)
- GI50 (HT-29): > 50 µM (inactive)
- GI50 (Hs-578T): 8.32 µM (inactive)
- GI50 (IGROV-1): 29.6 µM (inactive)
- GI50 (K562): > 50 µM (inactive)
- GI50 (KM12): > 50 µM (inactive)
- GI50 (LOX IMVI): 15.1 µM (inactive)
- GI50 (M14): 12.7 µM (inactive)
- GI50 (MCF7): 18.9 µM (inactive)
- GI50 (MDA-MB-231): 15.6 µM (inactive)
- GI50 (MDA-MB-435): 14.2 µM (inactive)
- GI50 (MDA-N): 24.8 µM (inactive)
- GI50 (MOLT-4): > 50 µM (inactive)
- GI50 (Malme-3M): 24 µM (inactive)
- GI50 (NCI-H226): 12.4 µM (inactive)
- GI50 (NCI-H23): 41.4 µM (inactive)
- GI50 (NCI-H460): 5.12 µM (inactive)
- GI50 (NCI-H522): 23.2 µM (inactive)
- GI50 (NCI/ADR-RES): 14.4 µM (inactive)
- GI50 (OVCAR-3): 10.1 µM (inactive)
- GI50 (OVCAR-4): 1.25 µM (inactive)
- GI50 (OVCAR-5): > 50 µM (inactive)
- GI50 (OVCAR-8): 10.6 µM (inactive)
- GI50 (PC-3): > 50 µM (inactive)
- GI50 (SF-268): 15.7 µM (inactive)
- GI50 (SF-295): 22 µM (inactive)
- GI50 (SF-539): 25.6 µM (inactive)
- GI50 (SK-MEL-28): > 50 µM (inactive)
- GI50 (SK-MEL-5): 16.4 µM (inactive)
- GI50 (SK-OV-3): 14.9 µM (inactive)
- GI50 (SN12C): 20.5 µM (inactive)
- GI50 (SNB-19): 9.86 µM (inactive)
- GI50 (SR): 0.005 µM (active)
- GI50 (SW-620): 48 µM (inactive)
- GI50 (T47D): > 50 µM (inactive)
- GI50 (TK-10): 12.2 µM (inactive)
- GI50 (U-251): 6.4 µM (inactive)
- GI50 (UACC-257): > 50 µM (inactive)
- GI50 (UACC-62): > 50 µM (inactive)
- GI50 (UO-31): 3.61 µM (inactive)

Reference: ChEMBL document CHEMBL1201862, “PubChem BioAssay data set” (2004)
